# Laboratory results taken from patent US8431567B2 (Abbott GmbH & Co. KG, priority 2006, dated 2013).
# Biological target: T1, human vasopressin V1b receptor (Homo sapiens, UniProt P47901)
# T1 construct: expressed in transfected cells; host or cells: CHO-K1 (cell line hV1b_3H2_CHO), membrane preparation
# T1 sequence (P47901 1-424): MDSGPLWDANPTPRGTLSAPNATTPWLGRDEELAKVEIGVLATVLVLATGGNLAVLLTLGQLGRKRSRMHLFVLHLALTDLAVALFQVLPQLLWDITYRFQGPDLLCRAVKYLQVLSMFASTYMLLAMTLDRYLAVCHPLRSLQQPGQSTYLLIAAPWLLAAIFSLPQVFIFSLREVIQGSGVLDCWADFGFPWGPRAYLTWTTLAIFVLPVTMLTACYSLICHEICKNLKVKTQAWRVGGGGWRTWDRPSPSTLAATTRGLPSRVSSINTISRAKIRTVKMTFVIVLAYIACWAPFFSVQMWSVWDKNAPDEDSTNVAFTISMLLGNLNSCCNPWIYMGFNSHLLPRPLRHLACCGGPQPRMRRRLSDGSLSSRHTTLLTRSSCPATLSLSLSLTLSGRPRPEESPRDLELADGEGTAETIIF
# Test: Vasopressin V1b receptor binding test
# Conditions: membranes of CHO-K1 cells, displacement of 1.5 nM 3H-AVP
# Method in brief: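 Radioligand competition binding to human V1b receptor membranes in 50 mM Tris, 10 mM MgCl2, 0.1% BSA, pH 7.4; nonspecific binding with 1 μM AVP.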
row,Structure (SMILES),Ki [µM]
1,"COc1ccc(S(=O)(=O)N2C(=O)C(c3cc(OC)ccc3OC)(N3CCN(c4ccncc4)CC3)c3cc(C#N)ccc32)cc1 (stereo not drawn) [Example 63, 5-Cyano-3-(2,5-dimethoxyphenyl)-1-(4-methoxy-benzenesulphonyl)-3-(4-pyridin-4-yl-piperazin-1-yl)-2,3-dihydro-1H-indol-2-one]",< 0.05
2,"CCOc1c(OC)cccc1C1(N2CCN(c3ccnc(C(C)C)c3)CC2)C(=O)N(S(=O)(=O)c2ccc(OC)cc2OC)c2ccc(C#N)cc21 (stereo not drawn) [Example 110, 5-Cyano-1-(2,4-dimethoxybenzenesulphonyl)-3-(2-ethoxy-3-methoxyphenyl)-3-[4-(2-isopropylpyridin-4-yl)-piperazin-1-yl]-2,3-dihydro-1H-indol-2-one×trifluoroacetic acid]",< 0.05
3,"CCOc1cc(OC)ccc1C1(N2CCN(c3ccnc(C(C)C)c3)CC2)C(=O)N(S(=O)(=O)c2ccc(OC)cc2OC)c2ccc(C#N)cc21 (stereo not drawn) [Example 111, 5-Cyano-1-(2,4-dimethoxybenzenesulphonyl)-3-(2-ethoxy-4-methoxyphenyl)-3-[4-(2-isopropylpyridin-4-yl)-piperazin-1-yl]-2,3-dihydro-1H-indol-2-one×trifluoroacetic acid]",< 0.05
4,"CCOc1ccccc1C1(N2CCN(c3ccncc3)CC2)C(=O)N(S(=O)(=O)c2ccc(OC(C)C)cc2)c2ccc(C#N)cc21 (stereo not drawn) [Example 113, 5-Cyano-3-(2-ethoxyphenyl)-1-(4-isopropoxybenzenesulphonyl)-3-(4-pyridin-4-yl-piperazin-1-yl)-2,3-dihydro-1H-indol-2-one×trifluoroacetic acid]",0.05 to 0.5
5,"CCOc1ccccc1C1(N2CCN(c3ccncc3)CC2)C(=O)N(S(=O)(=O)c2ccc(C)cc2F)c2ccc(C#N)cc21 (stereo not drawn) [Example 115, 5-Cyano-3-(2-ethoxyphenyl)-1-(2-fluoro-4-methylbenzenesulphonyl)-3-(4-pyridin-4-yl-piperazin-1-yl)-2,3-dihydro-1H-indol-2-one]",0.05 to 0.5
6,"CCOc1ccc(OC)cc1C1(NCCNc2ccncc2)C(=O)N(S(=O)(=O)c2ccc(OC)cc2OC)c2ccc(C#N)cc21 (stereo not drawn) [Example 122, 5-Cyano-1-(2,4-dimethoxybenzenesulphonyl)-3-(2-ethoxy-5-methoxyphenyl)-3-[2-(pyridin-4-ylamino)-ethylamino]-2,3-dihydro-1H-indol-2-one]",< 0.05
